Results from PubChem BioAssay AID1745844 (Carcinogenic Potency Database (CPDB), 2022).
Several values for one entry are separate records, joined by “and”; a condition that tells them apart may be missing. Equal entries are not always repeated. Activity calls are given as the source filed them. How the calls were made is not given here.

Tested on: rodent lifetime carcinogenesis bioassay, tumor incidence TD50
Experiment: carcinogenic potency in animals, long-term in vivo studies, CPDB compilation (AID 1745844)

Structure (SMILES): O=[N+]([O-])c1ccc(NCCO)c(OCCO)c1
- carcinogen call (mouse, strain B6C3F1, females, in feed, site: any site (literature study), lesion: several types, types named in the paper, dosed 103 weeks, study length 104 weeks): negative (inactive)
- carcinogen call (mouse, strain B6C3F1, males, in feed, site: any site (literature study), lesion: several types, types named in the paper, dosed 103 weeks, study length 104 weeks): negative (inactive)
- carcinogen call (rat, strain Fischer 344, females, in feed, site: any site (literature study), lesion: several types, types named in the paper, dosed 103 weeks, study length 104 weeks): negative (inactive)
- TD50 (rat, strain Fischer 344, males, in feed, site: pituitary gland, lesion: pars distalis adenoma, dosed 103 weeks, study length 104 weeks): 465 mg/kg/day

Structure (SMILES): CC(C)(C)NCC(O)c1cc(O)cc(O)c1 (configuration not stated)
- TD50 (rat, strain Charles River CD (Sprague-Dawley), females, in feed, site: mesovarium, lesion: leiomyoma, dosed 104 weeks, study length 104 weeks): 410 mg/kg/day

Structure (SMILES): Nc1ccc(-c2ccccc2)cc1O
- carcinogen call (rat, strain Not specified, females, in feed, site: liver, lesion: one or several types, types not named, dosed 43 weeks, study length 65 weeks): negative (inactive)

Structure (SMILES): Cc1cc(C)c(N=Nc2c(O)c(S(=O)(=O)O)cc3cc(S(=O)(=O)O)ccc23)cc1C
- TD50 (rat, strain Bethesda black, both sexes, in feed, site: liver, lesion: carcinoma, dosed 104 weeks, study length 104 weeks): 2480 mg/kg/day
- TD50 (rat, strain Bethesda black, both sexes, in feed, site: liver, lesion: hepatocellular tumor, benign, dosed 104 weeks, study length 104 weeks): 3540 mg/kg/day
- TD50 (rat, strain Bethesda black, both sexes, in feed, site: liver, lesion: nodular hyperplasia, dosed 104 weeks, study length 104 weeks): 3040 mg/kg/day
- TD50 (rat, strain Bethesda black, both sexes, in feed, site: liver, lesion: several types, types named in the paper, dosed 104 weeks, study length 104 weeks): 746 mg/kg/day
- TD50 (rat, strain Not specified, females, in feed, site: bile duct, lesion: adenoma, dosed 65 weeks, study length 65 weeks): 1570 mg/kg/day
- TD50 (rat, strain Not specified, females, in feed, site: liver, lesion: carcinoma, dosed 65 weeks, study length 65 weeks): 1990 mg/kg/day
- TD50 (rat, strain Not specified, males, in feed, site: bile duct, lesion: adenoma, dosed 65 weeks, study length 65 weeks): 755 mg/kg/day
- TD50 (rat, strain Not specified, males, in feed, site: liver, lesion: carcinoma, dosed 65 weeks, study length 65 weeks): 1240 mg/kg/day
- TD50 (rat, strain Osborne-Mendel, both sexes, in feed, site: any site (literature study), lesion: malignant tumor, dosed 104 weeks, study length 104 weeks): 12900 mg/kg/day
- TD50 (rat, strain Osborne-Mendel, both sexes, in feed, site: liver, lesion: carcinoma, dosed 104 weeks, study length 104 weeks): 7540 mg/kg/day
- TD50 (rat, strain Osborne-Mendel, both sexes, in feed, site: liver, lesion: hepatocellular tumor, benign, dosed 104 weeks, study length 104 weeks): 909 mg/kg/day
- TD50 (rat, strain Osborne-Mendel, both sexes, in feed, site: liver, lesion: nodular hyperplasia, dosed 104 weeks, study length 104 weeks): 639 mg/kg/day
- TD50 (rat, strain Wistar, both sexes, in feed, site: liver, lesion: one or several types, types not named, dosed 65 weeks, study length 65 weeks): 225 mg/kg/day and 394 mg/kg/day
- TD50 (rat, strain Wistar, both sexes, in feed, site: liver, lesion: one or several types, types not named, dosed 70 weeks, study length 70 weeks): 314 mg/kg/day and 420 mg/kg/day

Structure (SMILES): COc1c2occc2cc2ccc(=O)oc12
- TD50 (mouse, strain HRA/Skh (hairless), females, in feed, site: skin, lesion: several types, types named in the paper, dosed 52 weeks, study length 80 weeks): 56.8 mg/kg/day (inactive)
- TD50 (mouse, strain HRA/Skh (hairless), females, in feed, site: skin, lesion: squamous-cell carcinoma, dosed 52 weeks, study length 80 weeks): 48.9 mg/kg/day (inactive)
- TD50 (mouse, strain HRA/Skh (hairless), females, in feed, site: skin, lesion: squamous-cell papilloma, dosed 52 weeks, study length 80 weeks): 151 mg/kg/day (inactive)
- carcinogen call (mouse, strain HRA/Skh (hairless), males, in feed, site: skin, lesion: several types, types named in the paper, dosed 52 weeks, study length 80 weeks): negative (inactive)
- carcinogen call (mouse, strain HRA/Skh (hairless), males, in feed, site: skin, lesion: squamous-cell carcinoma, in situ, dosed 52 weeks, study length 80 weeks): negative (inactive)
- carcinogen call (mouse, strain HRA/Skh (hairless), males, in feed, site: skin, lesion: squamous-cell carcinoma, dosed 52 weeks, study length 80 weeks): negative (inactive)
- TD50 (mouse, strain HRA/Skh (hairless), males, in feed, site: skin, lesion: squamous-cell papilloma, dosed 52 weeks, study length 80 weeks): 137 mg/kg/day (inactive)
- TD50 (rat, strain Fischer 344, females, by gavage, site: any site (literature study), lesion: several types, types named in the paper, dosed 103 weeks, study length 105 weeks): 45.6 mg/kg/day
- TD50 (rat, strain Fischer 344, females, by gavage, site: liver, lesion: hepatocellular adenoma + hepatocellular carcinoma + neoplastic nodule, dosed 103 weeks, study length 105 weeks): 5140 mg/kg/day
- TD50 (rat, strain Fischer 344, females, by gavage, site: palate + tongue, lesion: squamous-cell papilloma, dosed 103 weeks, study length 105 weeks): 333 mg/kg/day (inactive)
- TD50 (rat, strain Fischer 344, males, by gavage, site: Zymbal's gland, lesion: carcinoma, NOS + squamous-cell carcinoma, dosed 103 weeks, study length 105 weeks): 101 mg/kg/day
- TD50 (rat, strain Fischer 344, males, by gavage, site: any site (literature study), lesion: several types, types named in the paper, dosed 103 weeks, study length 105 weeks): 16.1 mg/kg/day
- TD50 (rat, strain Fischer 344, males, by gavage, site: kidney + Zymbal's gland, lesion: tubular-cell adenoma + tubular-cell adenocarcinoma + carcinoma, NOS + squamous-cell carcinoma, dosed 103 weeks, study length 105 weeks): 27.3 mg/kg/day
- TD50 (rat, strain Fischer 344, males, by gavage, site: kidney, lesion: tubular-cell adenocarcinoma, dosed 103 weeks, study length 105 weeks): 167 mg/kg/day
- TD50 (rat, strain Fischer 344, males, by gavage, site: kidney, lesion: tubular-cell adenoma + tubular-cell adenocarcinoma, dosed 103 weeks, study length 105 weeks): 32.4 mg/kg/day
- TD50 (rat, strain Fischer 344, males, by gavage, site: kidney, lesion: tubular-cell adenoma, dosed 103 weeks, study length 105 weeks): 43.2 mg/kg/day
- TD50 (rat, strain Fischer 344, males, by gavage, site: lung, lesion: alveolar/bronchiolar adenoma + alveolar/bronchiolar carcinoma, dosed 103 weeks, study length 105 weeks): 57.1 mg/kg/day
- TD50 (rat, strain Fischer 344, males, by gavage, site: lung, lesion: alveolar/bronchiolar adenoma, dosed 103 weeks, study length 105 weeks): 57.1 mg/kg/day
- TD50 (rat, strain Fischer 344, males, by gavage, site: lung, lesion: alveolar/bronchiolar carcinoma, dosed 103 weeks, study length 105 weeks): 488 mg/kg/day
- TD50 (rat, strain Fischer 344, males, by gavage, site: pancreas, lesion: acinar-cell adenoma, dosed 103 weeks, study length 105 weeks): 113 mg/kg/day
- TD50 (rat, strain Fischer 344, males, by gavage, site: subcutaneous tissue, lesion: fibroma + sarcoma, NOS, dosed 103 weeks, study length 105 weeks): 70.2 mg/kg/day
- TD50 (rat, strain Fischer 344, males, by gavage, site: subcutaneous tissue, lesion: fibroma, dosed 103 weeks, study length 105 weeks): 72.6 mg/kg/day
- TD50 (rat, strain Fischer 344, males, by gavage, site: testis, lesion: interstitial-cell tumor, dosed 103 weeks, study length 105 weeks): 14.6 mg/kg/day

Structure (SMILES): CCCCCCCCCCN(C)N=O
- carcinogen call (rat, strain Fischer 344, males, by gavage, site: any site (literature study), lesion: several types, types named in the paper, dosed 30 weeks, study length 102 weeks): positive
- TD50 (rat, strain Fischer 344, males, by gavage, site: forestomach, lesion: carcinoma, dosed 30 weeks, study length 102 weeks): 46.6 mg/kg/day
- TD50 (rat, strain Fischer 344, males, by gavage, site: forestomach, lesion: papilloma, dosed 30 weeks, study length 102 weeks): 46.6 mg/kg/day
- TD50 (rat, strain Fischer 344, males, by gavage, site: liver, lesion: hepatocellular carcinoma, dosed 30 weeks, study length 102 weeks): 22.7 mg/kg/day
- TD50 (rat, strain Fischer 344, males, by gavage, site: lung, lesion: adenocarcinoma, dosed 30 weeks, study length 102 weeks): 8.32 mg/kg/day
- TD50 (rat, strain Fischer 344, males, by gavage, site: lung, lesion: adenoma, dosed 30 weeks, study length 102 weeks): 14.7 mg/kg/day
- TD50 (rat, strain Fischer 344, males, by gavage, site: nasal cavity, lesion: several types, types named in the paper, dosed 30 weeks, study length 102 weeks): 46.6 mg/kg/day
- TD50 (rat, strain Fischer 344, males, by gavage, site: urinary bladder, lesion: transitional-cell carcinoma, dosed 30 weeks, study length 102 weeks): 1.26 mg/kg/day

Structure (SMILES): O=CCC=O
- TD50 (mouse, strain B6C3F1, females, by gavage, site: any site (literature study), lesion: several types, types named in the paper, dosed 103 weeks, study length 104 weeks): 274 mg/kg/day (inactive)
- TD50 (mouse, strain B6C3F1, females, by gavage, site: liver, lesion: hepatocellular adenoma + hepatocellular carcinoma + neoplastic nodule, dosed 103 weeks, study length 104 weeks): 568 mg/kg/day
- TD50 (mouse, strain B6C3F1, females, by gavage, site: lung, lesion: alveolar/bronchiolar adenoma + alveolar/bronchiolar carcinoma, dosed 103 weeks, study length 104 weeks): 4410 mg/kg/day
- TD50 (mouse, strain B6C3F1, males, by gavage, site: any site (literature study), lesion: several types, types named in the paper, dosed 103 weeks, study length 104 weeks): 217 mg/kg/day (inactive)
- TD50 (mouse, strain B6C3F1, males, by gavage, site: liver, lesion: hepatocellular adenoma + hepatocellular carcinoma + neoplastic nodule, dosed 103 weeks, study length 104 weeks): 230 mg/kg/day
- TD50 (mouse, strain B6C3F1, males, by gavage, site: lung, lesion: alveolar/bronchiolar adenoma + alveolar/bronchiolar carcinoma, dosed 103 weeks, study length 104 weeks): 1130 mg/kg/day
- TD50 (mouse, strain Swiss, females, in drinking water, site: liver, lesion: hemangioma, dosed 52 weeks, study length 52 weeks): 24.8 mg/kg/day
- TD50 (mouse, strain Swiss, females, in drinking water, site: liver, lesion: hepatoma, dosed 52 weeks, study length 52 weeks): 4.62 mg/kg/day
- TD50 (mouse, strain Swiss, females, in drinking water, site: liver, lesion: hyperplastic nodule, dosed 52 weeks, study length 52 weeks): 44.3 mg/kg/day
- TD50 (mouse, strain Swiss, females, in drinking water, site: liver, lesion: several types, types named in the paper, dosed 52 weeks, study length 52 weeks): 14.1 mg/kg/day
- carcinogen call (mouse, strain Swiss, females, in drinking water, site: lung, lesion: adenoma, dosed 52 weeks, study length 52 weeks): negative (inactive)
- TD50 (rat, strain Fischer 344, females, by gavage, site: any site (literature study), lesion: several types, types named in the paper, dosed 103 weeks, study length 104 weeks): 164 mg/kg/day
- TD50 (rat, strain Fischer 344, females, by gavage, site: liver, lesion: hepatocellular adenoma + hepatocellular carcinoma + neoplastic nodule, dosed 103 weeks, study length 104 weeks): 1950 mg/kg/day
- TD50 (rat, strain Fischer 344, females, by gavage, site: thyroid gland, lesion: follicular-cell adenoma + follicular-cell carcinoma, dosed 103 weeks, study length 104 weeks): 252 mg/kg/day
- TD50 (rat, strain Fischer 344, males, by gavage, site: adrenal gland, lesion: cortical adenoma, dosed 103 weeks, study length 104 weeks): 566 mg/kg/day
- TD50 (rat, strain Fischer 344, males, by gavage, site: adrenal medulla, lesion: pheochromocytoma, dosed 103 weeks, study length 104 weeks): 184 mg/kg/day
- TD50 (rat, strain Fischer 344, males, by gavage, site: any site (literature study), lesion: several types, types named in the paper, dosed 103 weeks, study length 104 weeks): 41.8 mg/kg/day
- TD50 (rat, strain Fischer 344, males, by gavage, site: liver, lesion: hepatocellular adenoma + hepatocellular carcinoma + neoplastic nodule, dosed 103 weeks, study length 104 weeks): 665 mg/kg/day
- TD50 (rat, strain Fischer 344, males, by gavage, site: pancreatic islets + thyroid gland, lesion: islet-cell adenoma + follicular-cell adenoma + follicular-cell carcinoma, dosed 103 weeks, study length 104 weeks): 67.7 mg/kg/day
- TD50 (rat, strain Fischer 344, males, by gavage, site: pancreatic islets, lesion: islet-cell adenoma + islet-cell carcinoma, dosed 103 weeks, study length 104 weeks): 90.3 mg/kg/day
- TD50 (rat, strain Fischer 344, males, by gavage, site: pancreatic islets, lesion: islet-cell adenoma, dosed 103 weeks, study length 104 weeks): 80.5 mg/kg/day
- TD50 (rat, strain Fischer 344, males, by gavage, site: subcutaneous tissue, lesion: fibrosarcoma + fibroma, dosed 103 weeks, study length 104 weeks): 195 mg/kg/day
- TD50 (rat, strain Fischer 344, males, by gavage, site: testis, lesion: interstitial-cell tumor, dosed 103 weeks, study length 104 weeks): 39.8 mg/kg/day
- TD50 (rat, strain Fischer 344, males, by gavage, site: thyroid gland, lesion: follicular-cell adenoma + follicular-cell carcinoma, dosed 103 weeks, study length 104 weeks): 113 mg/kg/day
- TD50 (rat, strain Fischer 344, males, by gavage, site: thyroid gland, lesion: follicular-cell adenoma, dosed 103 weeks, study length 104 weeks): 206 mg/kg/day
- TD50 (rat, strain Fischer 344, males, by gavage, site: thyroid gland, lesion: follicular-cell carcinoma, dosed 103 weeks, study length 104 weeks): 236 mg/kg/day
